Source: ChEMBL document CHEMBL4613219, “Formation of 5α-dihydrotestosterone from 5α-androstane-3α,17β-diol in prostate cancer LAPC-4 cells - Identifying inhibitors of non-classical pathways producing the most potent androgen” (Bioorg Med Chem Lett, 2020)

Legend:
Details in all cases: LAPC4, 24 h
[1] = system: LAPC4; assay: Inhibition of 3-alpha-diol conversion to 5-alpha-dihydrotestosterone in human LAPC4 cells assessed in 100000 cells at 10 uM measured after 24 hrs using [14C]-3-alpha-diol/[14C]-3-beta-diol (9:1) as non-radiolabeled/radiolabeled 20:1 mixture by TLC analysis relative to control; format: functional
[2] = system: LAPC4; assay: Inhibition of 3-alpha-diol conversion to 5-alpha-dihydrotestosterone in human LAPC4 cells assessed in 100000 cells at 3 uM measured after 24 hrs using [14C]-3-alpha-diol/[14C]-3-beta-diol (9:1) as non-radiolabeled/radiolabeled 20:1 mixture by TLC analysis relative to control; format: functional
[3] = system: LAPC4; assay: Inhibition of 3-alpha-diol conversion to 5-alpha-dihydrotestosterone in human LAPC4 cells assessed in 200000 cells at 10 uM measured after 24 hrs using [14C]-3-alpha-diol/[14C]-3-beta-diol (9:1) as non-radiolabeled/radiolabeled 20:1 mixture by TLC analysis relative to control; format: functional
[4] = system: LAPC4; assay: Inhibition of 3-alpha-diol conversion to 5-alpha-dihydrotestosterone in human LAPC4 cells assessed in 200000 cells at 3 uM measured after 24 hrs using [14C]-3-alpha-diol/[14C]-3-beta-diol (9:1) as non-radiolabeled/radiolabeled 20:1 mixture by TLC analysis relative to control; format: functional
[5] = system: LAPC4; assay: Inhibition of 3-alpha-diol conversion to 5-alpha-dihydrotestosterone in human LAPC4 cells assessed in 200000 cells measured after 24 hrs using [14C]-3-alpha-diol/[14C]-3-beta-diol (9:1) as non-radiolabeled/radiolabeled 20:1 mixture by TLC analysis; format: functional, cell-based

Q: With `COc1cccc(CN2CCN(C[C@@]3(O)CC[C@@]4(C)[C@@H](CC[C@@H]5[C@@H]4CC[C@]4(C)C(=O)CC[C@@H]54)C3)CC2)c1` as the compound, how does the inhibition at 10 µM [1] read?
A: The inhibition at 10 µM was 42.5%.

Q: And the inhibition at 3 µM [2]?
A: The inhibition at 3 µM was 21.5%.

Q: Which inhibition at 10 µM [1] does the source give for `COc1cccc(CN2CCN(C[C@@]3(O)CC[C@@]4(C)[C@@H](CC[C@@H]5[C@@H]4CC[C@]4(C)[C@H](O)CC[C@@H]54)C3)CC2)c1` here?
A: The inhibition at 10 µM was 27.6%.

Q: What about the inhibition at 3 µM [2] of the same compound?
A: The inhibition at 3 µM was 9.5%.

Q: Which results are given for `C[C@]12CC[C@](O)(CN3CCN(C(=S)NCc4cccc(C(F)(F)F)c4)CC3)C[C@@H]1CC[C@@H]1[C@@H]2CC[C@]2(C)C(=O)CC[C@@H]12`?
A: inhibition at 10 µM [3]: 57.7%; inhibition at 3 µM [4]: 47.7%; inhibition at 10 µM [1]: 49.7%; inhibition at 3 µM [2]: 27%; IC50 [5]: 3.6 µM

Q: With `COc1cccc(CN2CCN(C[C@@]3(O)CC[C@@]4(C)[C@@H](CC[C@@H]5[C@@H]4CC[C@@]4(C)[C@H]5CC[C@]4(C)O)C3)CC2)c1` as the compound, how does the inhibition at 10 µM [1] read?
A: The inhibition at 10 µM was 36.5%.

Q: What about the inhibition at 3 µM [2] of the same compound?
A: The inhibition at 3 µM was 17.8%.

Q: How did the inhibition at 10 µM [1] turn out when `COc1cccc(CN2CCN(C[C@@]3(O)CC[C@@]4(C)[C@@H](CC[C@@H]5[C@@H]4CC[C@@]4(C)[C@H]5CCC4(F)F)C3)CC2)c1` was run?
A: Its inhibition at 10 µM is 49.7%.

Q: And the inhibition at 3 µM [2]?
A: Its inhibition at 3 µM is 33.7%.

Q: What does the source list for `C#C[C@]1(O)CC[C@H]2[C@@H]3CC[C@H]4C[C@@](O)(CN5CCN(Cc6cccc(OC)c6)CC5)CC[C@]4(C)[C@H]3CC[C@@]21C`?
A: inhibition at 10 µM [1]: 44.2%; inhibition at 3 µM [2]: 35.4%

Q: With `COc1cc(CN2CCN(C[C@@]3(O)CC[C@@]4(C)[C@@H](CC[C@@H]5[C@@H]4CC[C@]4(C)C(=O)CC[C@@H]54)C3)CC2)ccc1C` as the compound, how does the inhibition at 10 µM [1] read?
A: Its inhibition at 10 µM is 49%.

Q: And the inhibition at 3 µM [2]?
A: The inhibition at 3 µM was 22.3%.

Q: What does the source list for `CN(C)S(=O)(=O)c1ccc(NC(=S)N2CCN(C[C@@]3(O)CC[C@@]4(C)[C@@H](CC[C@@H]5[C@@H]4CC[C@]4(C)C(=O)CC[C@@H]54)C3)CC2)cc1`?
A: inhibition at 10 µM [1]: 31.7%; inhibition at 3 µM [2]: 14.3%

Q: With `COc1cccc(CN2CCN(C[C@@]3(O)CC[C@@]4(C)[C@@H](CC[C@@H]5[C@@H]4CC[C@]4(C)[C@@H](O)CC[C@@H]54)C3)CC2)c1` as the compound, how does the inhibition at 10 µM [1] read?
A: The inhibition at 10 µM was 28.3%.

Q: And the inhibition at 3 µM [2]?
A: Its inhibition at 3 µM is 21.2%.

Q: Which inhibition at 10 µM [1] does the source give for `COc1cccc(CN2CCN(C[C@@]3(O)CC[C@@]4(C)[C@@H](CC[C@@H]5[C@@H]4CC[C@]4(C)C(=O)C(C)(C)C[C@@H]54)C3)CC2)c1` here?
A: Its inhibition at 10 µM is 21.5%.

Q: And the inhibition at 3 µM [2]?
A: The inhibition at 3 µM was 11.8%.

Q: What does the source list for `CCN(C)S(=O)(=O)N1CCN(C[C@@]2(O)CC[C@@]3(C)[C@@H](CC[C@@H]4[C@@H]3CC[C@]3(C)C(=O)CC[C@@H]43)C2)CC1`?
A: inhibition at 10 µM [1]: 3.3%; inhibition at 3 µM [2]: 0%

Q: For `CC(=O)c1cccc(CN2CCN(C[C@@]3(O)CC[C@@]4(C)[C@@H](CC[C@@H]5[C@@H]4CC[C@]4(C)C(=O)CC[C@@H]54)C3)CC2)c1`, which inhibition at 10 µM [1] is on record?
A: Its inhibition at 10 µM is 15.5%.

Q: What about the inhibition at 3 µM [2] of the same compound?
A: The inhibition at 3 µM was 3.7%.

Q: For `C#C[C@]1(O)CC[C@H]2[C@@H]3CC[C@H]4C[C@@](O)(CN5CCN(Cc6ccc(C(F)(F)F)c(OC)c6)CC5)CC[C@]4(C)[C@H]3CC[C@@]21C`, which inhibition at 10 µM [3] is on record?
A: Its inhibition at 10 µM is 88.8%.

Q: And the inhibition at 3 µM [4]?
A: The inhibition at 3 µM was 74%.

Q: What about the IC50 [5] of the same compound?
A: Its IC50 is 1.2 µM.

Q: Which inhibition at 10 µM [3] does the source give for `COc1cc(CN2CCN(C[C@@]3(O)CC[C@@]4(C)[C@@H](CC[C@@H]5[C@@H]4CC[C@]4(C)C(=O)CC[C@@H]54)C3)CC2)cc(C(F)(F)F)c1` here?
A: Its inhibition at 10 µM is 62.9%.

Q: And the inhibition at 3 µM [4]?
A: Its inhibition at 3 µM is 46.8%.

Q: And the IC50 [5]?
A: The IC50 was 3.7 µM.

Q: Which results are given for `COc1ccc(C(F)(F)F)c(N2CCN(C[C@@]3(O)CC[C@@]4(C)[C@@H](CC[C@@H]5[C@@H]4CC[C@]4(C)C(=O)CC[C@@H]54)C3)CC2)c1`?
A: inhibition at 10 µM [3]: 48%; inhibition at 3 µM [4]: 27.6%

Q: For `COc1cc(C)ccc1CN1CCN(C[C@@]2(O)CC[C@@]3(C)[C@@H](CC[C@@H]4[C@@H]3CC[C@]3(C)C(=O)CC[C@@H]43)C2)CC1`, which inhibition at 10 µM [1] is on record?
A: The inhibition at 10 µM was 51.2%.

Q: And the inhibition at 3 µM [2]?
A: The inhibition at 3 µM was 12.2%.

Q: For `C[C@]12CC[C@](O)(CN3CCN(S(=O)(=O)c4ccc5ccccc5c4)CC3)C[C@@H]1CC[C@@H]1[C@@H]2CC[C@]2(C)C(=O)CC[C@@H]12`, which inhibition at 10 µM [3] is on record?
A: The inhibition at 10 µM was 19.1%.

Q: And the inhibition at 3 µM [4]?
A: Its inhibition at 3 µM is 0.1%.

Q: `C[C@]12CCC(O)C[C@@H]1CC[C@@H]1[C@@H]2CC[C@]2(C)[C@@H](O)CC[C@@H]12` (stereo not given in full) was tested. Which inhibition at 10 µM [3] did it give?
A: The inhibition at 10 µM was 87%.

Q: What about the inhibition at 3 µM [4] of the same compound?
A: The inhibition at 3 µM was 73.6%.

Q: What about the inhibition at 10 µM [1] of the same compound?
A: Its inhibition at 10 µM is 79.3%.

Q: And the inhibition at 3 µM [2]?
A: Its inhibition at 3 µM is 46.9%.

Q: What about the IC50 [5] of the same compound?
A: The IC50 was 0.56 µM.

Q: How did the inhibition at 10 µM [3] turn out when `C[C@]12CC[C@](O)(CN3CCN(C(=S)Nc4ccc5ccccc5c4)CC3)C[C@@H]1CC[C@@H]1[C@@H]2CC[C@]2(C)C(=O)CC[C@@H]12` was run?
A: The inhibition at 10 µM was 42.1%.

Q: And the inhibition at 3 µM [4]?
A: Its inhibition at 3 µM is 41.1%.

Q: How did the inhibition at 10 µM [1] turn out when `C[C@]12CC[C@](O)(CN3CCN(Cc4ccc5ccccc5n4)CC3)C[C@@H]1CC[C@@H]1[C@@H]2CC[C@]2(C)C(=O)CC[C@@H]12` was run?
A: The inhibition at 10 µM was 27.4%.

Q: And the inhibition at 3 µM [2]?
A: The inhibition at 3 µM was 8.4%.

Q: For `C[C@]12CC[C@](O)(CN3CCN(Cc4ccc5ccccc5c4)CC3)C[C@@H]1CC[C@@H]1[C@@H]2CC[C@]2(C)C(=O)CC[C@@H]12`, which inhibition at 10 µM [3] is on record?
A: The inhibition at 10 µM was 51.4%.

Q: What about the inhibition at 3 µM [4] of the same compound?
A: The inhibition at 3 µM was 30.1%.

Q: For `C#C[C@]1(O)CC[C@H]2[C@@H]3CC[C@H]4C[C@@](O)(CN5CCN(Cc6cccc(OC)c6C(F)(F)F)CC5)CC[C@]4(C)[C@H]3CC[C@@]21C`, which inhibition at 10 µM [3] is on record?
A: Its inhibition at 10 µM is 56.2%.

Q: What about the inhibition at 3 µM [4] of the same compound?
A: Its inhibition at 3 µM is 44.3%.

Q: And the IC50 [5]?
A: The IC50 was 14.1 µM.

Q: `COc1cc(CN2CCN(C[C@@]3(O)CC[C@@]4(C)[C@@H](CC[C@@H]5[C@@H]4CC[C@]4(C)C(=O)CC[C@@H]54)C3)CC2)ccc1C(F)(F)F` was tested. Which IC50 [5] did it give?
A: Its IC50 is 8 µM.

Q: How did the inhibition at 10 µM [3] turn out when `C[C@]12CC[C@](O)(CN3CCN(C(=O)c4ccc5ccccc5c4)CC3)C[C@@H]1CC[C@@H]1[C@@H]2CC[C@]2(C)C(=O)CC[C@@H]12` was run?
A: Its inhibition at 10 µM is 65.3%.

Q: What about the inhibition at 3 µM [4] of the same compound?
A: Its inhibition at 3 µM is 43.6%.

Q: And the IC50 [5]?
A: The IC50 was 6.1 µM.

Q: With `COc1cc(N2CCN(C[C@@]3(O)CC[C@@]4(C)[C@@H](CC[C@@H]5[C@@H]4CC[C@]4(C)C(=O)CC[C@@H]54)C3)CC2)ccc1F` as the compound, how does the inhibition at 10 µM [3] read?
A: Its inhibition at 10 µM is 37.2%.

Q: And the inhibition at 3 µM [4]?
A: Its inhibition at 3 µM is 21.4%.

Q: How did the inhibition at 10 µM [3] turn out when `COc1cc(N2CCN(C[C@@]3(O)CC[C@@]4(C)[C@@H](CC[C@@H]5[C@@H]4CC[C@]4(C)C(=O)CC[C@@H]54)C3)CC2)ccc1C(F)(F)F` was run?
A: Its inhibition at 10 µM is 63.2%.

Q: What about the inhibition at 3 µM [4] of the same compound?
A: The inhibition at 3 µM was 37.4%.

Q: What about the inhibition at 10 µM [1] of the same compound?
A: The inhibition at 10 µM was 55.6%.

Q: And the inhibition at 3 µM [2]?
A: Its inhibition at 3 µM is 33.7%.

Q: Which inhibition at 10 µM [3] does the source give for `C[C@]12CC[C@@H](O)C[C@@H]1CC[C@@H]1[C@@H]2CC[C@]2(C)C(=O)CC[C@@H]12` [ANDROSTERONE] here?
A: Its inhibition at 10 µM is 83.8%.

Q: What about the inhibition at 3 µM [4] of the same compound?
A: The inhibition at 3 µM was 85.7%.
